Source: patent US10898469B2, “Imidazolylamide derivative” (Sumitomo Dainippon Pharma Co., Ltd., priority 2016, dated 2021)
Read-outs that look alike come from different tables or passages of the source. Values belong to the compound of their own block, whether it stands above or below them.

What was measured:
Type in all cases: cell-based, human
HCT-116 cells = test: Inhibition test for sphere-forming ability of cancer cells (Test Example 1), HCT-116; conditions: for (100%-inhibition rate of cell proliferation) at 1 μmol/L, HCT-116 / viability at 1 µM / IC50: HCT-116 cells; for (100%-inhibition rate of cell proliferation) at 1 μmol/L, HCT-116 / viability at 1 µM: value with %, 1 μmol/L; for viability at 1 µM: read-out: (100%-inhibition rate of cell proliferation) at 1 μmol/L; for IC50: concentration for 50% inhibition of cell proliferation, read-out: IC50 (μmol/L) HCT-116 (Sphere IC50 value)
From the text: (§1) The reliable methods established for measuring the self-renewal ability of cells which is one of the CSC's properties include a method for measuring the sphere-forming ability of cancer cells in non-adherent condition in the absence of serum (Cancer Res 65, 5506-5511 (2005)). Human colorectal cancer-derived HCT-116 cells, human colon-adenocarcinoma-derived HT-29 cells, and human pharyngeal cancer-derived FaDu cells were available from American Type Culture Collection (ATCC). HCT-116 cells and HT-29 cells were cultured at 37° C. under 5% CO2 using the McCoy's 5a medium containing 10% fetal bovine serum (FBS) and 1% penicillin/streptomycin, and FaDu cells were cultured at 37° C. under 5% CO2 using the MEM medium containing 10% FBS, 1% non-essential amino acid, 1% sodium pyruvate, and 1% penicillin/streptomycin. HCT-116 cells, HT-29 cells, and FaDu cells were seeded in a 384 Well Black Clear Bottom Ultra-Low Attachment Microplate (Corning Cat. No. 3827) in an amount of 350-800 cells/well using the DMEM/F12 medium containing 2% B27 supplement (GIBCO), 20 ng/mL epidermal growth factor (EGF) (peprotech), 10 ng/mL basic fibroblast growth factor (bFGF) (peprotech), 5 μg/mL insulin (Sigma), and 1% penicillin/streptomycin. Each test compound was added into each well to adjust the final concentration of DMSO to 0.1%, and the cells were cultured for 4 days. The number of viable cells in each well was then measured with CellTiter-Glo® Luminescent Cell Viability Assay (Promega) to calculate the concentration of each test compound for 50% inhibition of cell proliferation (Sphere IC50 value; μmol/L).
(§2) The experiment of Test Example 1 was performed for each compound of each Example. The concentration of each test compound for 50% inhibition of cell proliferation (Sphere IC50 value; μmol/L) is shown in the following Table.

HT-29 cells = test: Inhibition test for sphere-forming ability of cancer cells (Test Example 1), HT-29; conditions: for (100%-inhibition rate of cell proliferation) at 1 μmol/L, HT-29: value with %; for viability at 1 µM: read-out: (100%-inhibition rate of cell proliferation) at 1 μmol/L, 1 μmol/L, value with %; for IC50: concentration for 50% inhibition of cell proliferation, read-out: IC50 (μmol/L) HT-29 (Sphere IC50 value)
From the text: as §1, §2

FaDu cells = test: Inhibition test for sphere-forming ability of cancer cells (Test Example 1), FaDu; conditions: for (100%-inhibition rate of cell proliferation) at 1 μmol/L, FaDu: value with %; for viability at 1 µM: read-out: (100%-inhibition rate of cell proliferation) at 1 μmol/L, 1 μmol/L, value with %; for IC50: concentration for 50% inhibition of cell proliferation, read-out: IC50 (μmol/L) FaDu (Sphere IC50 value)
From the text: as §1, §2

Structure (SMILES): CCCCOc1ccc(C(=O)Nc2cn(Cc3cccc(Cl)c3)cn2)cn1 [Example 135]
- (100%-inhibition rate of cell proliferation) at 1 μmol/L, HCT-116 (HCT-116 cells): 31.8%
- (100%-inhibition rate of cell proliferation) at 1 μmol/L, HT-29 (HT-29 cells): 28.0%
- (100%-inhibition rate of cell proliferation) at 1 μmol/L, FaDu (FaDu cells): 25.0%

Structure (SMILES): COCCOc1ccc(C(=O)Nc2cn(Cc3cccc(Cl)c3)cn2)cc1 [Example 265, N-[1-(3-Chlorobenzyl)-1H-imidazol-4-yl]-4-(2-methoxyethoxy)benzamide]
- viability at 1 µM (HCT-116 cells; Homo sapiens): 41.7%
- viability at 1 µM (HT-29 cells; Homo sapiens): 33.1%
- viability at 1 µM (FaDu cells; Homo sapiens): 41.2%

Structure (SMILES): O=C(Nc1cn(Cc2cccc(Cl)c2)cn1)c1cncc(Br)c1 [Example 283]
- viability at 1 µM (HCT-116 cells; Homo sapiens): 75.6%
- viability at 1 µM (HT-29 cells; Homo sapiens): 44.7%
- viability at 1 µM (FaDu cells; Homo sapiens): 50%

- IC50 (HCT-116 cells): 0.09 µmol/L
- IC50 (HT-29 cells): 0.02 µmol/L
- IC50 (FaDu cells): 0.07 µmol/L
Structure (SMILES): O=C(/C=C/c1ccc(Br)cc1)Nc1cn(Cc2cccc(Cl)c2)cn1 [Example 61]
- inhibitory effect on the sphere-forming ability of cancer cells (HCT-116 cells; Test Example 1, summary in words, cell line not given (HCT-116, HT-29, FaDu tested)): particularly potent inhibitory effect

- IC50 (HCT-116 cells; Homo sapiens): 2.65 µmol/L
- IC50 (HT-29 cells; Homo sapiens): 0.75 µmol/L
- IC50 (FaDu cells; Homo sapiens): 0.67 µmol/L
Structure (SMILES): O=C(/C=C/c1cccnc1)Nc1cn(Cc2cccc(OC(F)(F)F)c2)cn1 [Example 109]

- IC50 (HCT-116 cells; Homo sapiens): 7.42 µmol/L
- IC50 (HT-29 cells; Homo sapiens): > 10 µmol/L
- IC50 (FaDu cells; Homo sapiens): 5.97 µmol/L
Structure (SMILES): COc1cc(/C=C/C(=O)Nc2cn(Cc3cccc(Cl)c3)cn2)ccc1O [Example 24]

- IC50 (HCT-116 cells; Homo sapiens): 0.67 µmol/L
- IC50 (HT-29 cells; Homo sapiens): 0.16 µmol/L
- IC50 (FaDu cells; Homo sapiens): 0.56 µmol/L
Structure (SMILES): O=C(/C=C/c1ccsc1)Nc1cn(Cc2cccc(Cl)c2)cn1 [Example 119]

- IC50 (HCT-116 cells; Homo sapiens): 7.05 µmol/L
- IC50 (HT-29 cells; Homo sapiens): 6.65 µmol/L
- IC50 (FaDu cells; Homo sapiens): 0.66 µmol/L
Structure (SMILES): O=C(/C=C/c1ccc(O)c(O)c1)Nc1cn(Cc2cccc(Cl)c2)cn1 [Example 21, (E)-N-(1-(3-Chlorobenzyl)-1H-imidazol-4-yl)-3-(3,4-dihydroxyphenyl)acrylamide]

- IC50 (HCT-116 cells): > 10 µmol/L
- IC50 (HT-29 cells): 4.25 µmol/L
- IC50 (FaDu cells): 0.77 µmol/L
Structure (SMILES): CCOc1ncc(C(=O)Nc2cn(Cc3cccc(Cl)c3)cn2)cc1Cl [Example 220]

- IC50 (HCT-116 cells; Homo sapiens): 8.29 µmol/L
- IC50 (HT-29 cells; Homo sapiens): 0.8 µmol/L
- IC50 (FaDu cells; Homo sapiens): 3.06 µmol/L
Structure (SMILES): O=C(Nc1cn(Cc2cccc(C(F)(F)F)c2)cn1)/C(F)=C/c1cccnc1 [Example 106]

- IC50 (HCT-116 cells): 0.88 µmol/L
- IC50 (HT-29 cells): 0.83 µmol/L
- IC50 (FaDu cells): 0.91 µmol/L
Structure (SMILES): O=C(/C=C/c1ccoc1)Nc1cn(Cc2cccc(Cl)c2)cn1 [Example 88]

Structure (SMILES): COc1ccc(C(=O)Nc2cn(Cc3ccc(C)c(Cl)c3)cn2)cc1OC [Example 295]
- (100%-inhibition rate of cell proliferation) at 1 μmol/L, HCT-116 (HCT-116 cells): 83.0%
- (100%-inhibition rate of cell proliferation) at 1 μmol/L, HT-29 (HT-29 cells): 37.8%
- (100%-inhibition rate of cell proliferation) at 1 μmol/L, FaDu (FaDu cells): 31.8%

- IC50 (HCT-116 cells; Homo sapiens): 0.32 µmol/L
- IC50 (HT-29 cells; Homo sapiens): 0.02 µmol/L
- IC50 (FaDu cells; Homo sapiens): 0.05 µmol/L
Structure (SMILES): CCOc1ccc(/C=C/C(=O)Nc2cn(Cc3cccc(Cl)c3)cn2)cn1 [Example 1, (E)-N-(1-(3-Chlorobenzyl)-1H-imidazol-4-yl)-3-(6-ethoxypyridin-3-yl)acrylamide]

- IC50 (HCT-116 cells; Homo sapiens): 5.05 µmol/L
- IC50 (HT-29 cells; Homo sapiens): 0.94 µmol/L
- IC50 (FaDu cells; Homo sapiens): 0.85 µmol/L
Structure (SMILES): Cc1cccc(/C=C/C(=O)Nc2cn(Cc3cccc(C(F)(F)F)c3)cn2)c1 [Example 105]

Structure (SMILES): CCCOc1ccc(C(=O)Nc2cn(Cc3cccc(Cl)c3)cn2)cn1 [Example 136]
- (100%-inhibition rate of cell proliferation) at 1 μmol/L, HCT-116 (HCT-116 cells): 44.2%
- (100%-inhibition rate of cell proliferation) at 1 μmol/L, HT-29 (HT-29 cells): 71.8%
- (100%-inhibition rate of cell proliferation) at 1 μmol/L, FaDu (FaDu cells): 75.2%

- IC50 (HCT-116 cells): > 10 µmol/L
- IC50 (HT-29 cells): 0.81 µmol/L
- IC50 (FaDu cells): 5.33 µmol/L
Structure (SMILES): O=C(Nc1cn(Cc2cccc(Cl)c2)cn1)c1ccc(OC2CCCC2)nc1 [Example 208]

- IC50 (HCT-116 cells): > 10 µmol/L
- IC50 (HT-29 cells): 2.39 µmol/L
- IC50 (FaDu cells): 6.39 µmol/L
Structure (SMILES): CN(C)CCOc1ccc(C(=O)Nc2cn(Cc3cccc(Cl)c3)cn2)cn1 [Example 205]

Structure (SMILES): Cn1cc(C(=O)Nc2cn(Cc3cccc(Cl)c3)cn2)ccc1=O [Example 243]
- viability at 1 µM (HCT-116 cells; Homo sapiens): 23.8%
- viability at 1 µM (HT-29 cells; Homo sapiens): 19.5%
- viability at 1 µM (FaDu cells; Homo sapiens): 29%
